{"source": "patent US7230074B2", "about": "“Inhibitors of dipeptidyl-aminopeptidase type IV” (Trustees of Tufts College, priority 1991, dated 2007)", "key": {"[1]": {"test": "Decomposition in aqueous solution", "type": "physicochemical", "conditions": "neutral pH, room temperature (20–25° C.)", "from_the_text": ". Many dipeptide derivatives with a free N terminal amino group and a functional group (such as a difluoromethyl ketone) on the C-terminus are similarly unstable due to intramolecular reaction. A six member ring is formed between the amino and C-terminal functional groups and undergoes subsequent further reaction, such as hydrolysis."}, "[2]": {"test_system": "HIV-1-IIIB in A3.5 cells", "test": "HIV-1 replication in A3.5 cells (p24 antigen ELISA)", "type": "cell-based", "from_the_text": "[…]. The rational for these experiments comes from the reported connection between T-cell activation, IL-2 production, and HIV replication and expression of HIV proteins.\nCell lines used in the present studies include A3.5 cells (a monocyte cell line which is CD4+, HLA−DR+, and CD3—) and peripheral blood mononuclear cells (PBMC). The A3.5 cells grow continuously in culture without exogenous growth factors. PBMC cells require IL-2 for propagation in vitro. Cells were infected with HIV-1-IIIB at a multiplicity of infection (moi) of 5×10^−4 tissue culture infectious dose 50 (TCID50)/cell for both the A3.5 cells and the PMBC cells. Dilutions of inhibitor were made in RPMI-1640 and subsequently passed through a 0.22 um filter. At the start of each experiment, 1×10^6 cells/well, in 24-well plates, were infected with HIV-1-IIIB at the moi indicated above. Inhibitor was added simultaneously at the appropriate dilutions. All cultures were maintained at 5% CO2 and 37° C. in RPMI-1640 supplemented with penicillin, streptomycin, L-glutamine, hepes buffer, and 20% heat-inactivated fetal calf serum. Cell counts and viability were determined by trypan blue exclusion. Culture supernatants were harvested and assayed for HIV-1 p24 antigen by ELISA (NEN-DuPont, Boston, Mass.). Fresh media and inhibitor were added on each day. […]"}, "[3]": {"biological_target": "T1, DP-IV from human placenta (Homo sapiens, UniProt P27487)", "T1 construct": "and from human placenta by the method of Puschel et al; from tissue; host or cells: human placenta", "T1 sequence (P27487 whole entry)": "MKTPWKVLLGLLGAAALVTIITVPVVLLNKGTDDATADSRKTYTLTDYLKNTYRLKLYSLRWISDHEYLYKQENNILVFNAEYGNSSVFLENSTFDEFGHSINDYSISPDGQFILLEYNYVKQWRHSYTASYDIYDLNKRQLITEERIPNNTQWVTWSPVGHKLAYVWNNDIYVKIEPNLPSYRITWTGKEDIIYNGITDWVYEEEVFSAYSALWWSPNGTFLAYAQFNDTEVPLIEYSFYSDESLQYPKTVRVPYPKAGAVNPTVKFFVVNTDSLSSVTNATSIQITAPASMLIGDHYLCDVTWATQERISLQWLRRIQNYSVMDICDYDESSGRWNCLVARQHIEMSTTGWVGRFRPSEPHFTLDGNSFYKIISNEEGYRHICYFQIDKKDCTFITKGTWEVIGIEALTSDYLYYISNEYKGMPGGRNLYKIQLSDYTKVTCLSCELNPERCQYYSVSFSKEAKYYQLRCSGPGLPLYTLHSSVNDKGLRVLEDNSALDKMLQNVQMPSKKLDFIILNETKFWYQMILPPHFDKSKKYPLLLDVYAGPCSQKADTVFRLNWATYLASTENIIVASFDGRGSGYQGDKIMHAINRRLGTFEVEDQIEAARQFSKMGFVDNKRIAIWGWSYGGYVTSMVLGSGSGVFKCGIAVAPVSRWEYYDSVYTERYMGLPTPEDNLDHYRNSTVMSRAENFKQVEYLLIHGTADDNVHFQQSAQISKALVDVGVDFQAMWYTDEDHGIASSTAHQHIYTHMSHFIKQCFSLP", "test": "DP-IV inhibition, enzyme from human placenta", "type": "biochemical"}, "[4]": {"biological_target": "T2, DP-IV isolated from porcine kidneys (Sus scrofa, UniProt P22411)", "T2 construct": "DP-IV is purified from pig kidney cortex by the method of Barth et al; from tissue; host or cells: pig kidney cortex", "T2 sequence (P22411 whole entry)": "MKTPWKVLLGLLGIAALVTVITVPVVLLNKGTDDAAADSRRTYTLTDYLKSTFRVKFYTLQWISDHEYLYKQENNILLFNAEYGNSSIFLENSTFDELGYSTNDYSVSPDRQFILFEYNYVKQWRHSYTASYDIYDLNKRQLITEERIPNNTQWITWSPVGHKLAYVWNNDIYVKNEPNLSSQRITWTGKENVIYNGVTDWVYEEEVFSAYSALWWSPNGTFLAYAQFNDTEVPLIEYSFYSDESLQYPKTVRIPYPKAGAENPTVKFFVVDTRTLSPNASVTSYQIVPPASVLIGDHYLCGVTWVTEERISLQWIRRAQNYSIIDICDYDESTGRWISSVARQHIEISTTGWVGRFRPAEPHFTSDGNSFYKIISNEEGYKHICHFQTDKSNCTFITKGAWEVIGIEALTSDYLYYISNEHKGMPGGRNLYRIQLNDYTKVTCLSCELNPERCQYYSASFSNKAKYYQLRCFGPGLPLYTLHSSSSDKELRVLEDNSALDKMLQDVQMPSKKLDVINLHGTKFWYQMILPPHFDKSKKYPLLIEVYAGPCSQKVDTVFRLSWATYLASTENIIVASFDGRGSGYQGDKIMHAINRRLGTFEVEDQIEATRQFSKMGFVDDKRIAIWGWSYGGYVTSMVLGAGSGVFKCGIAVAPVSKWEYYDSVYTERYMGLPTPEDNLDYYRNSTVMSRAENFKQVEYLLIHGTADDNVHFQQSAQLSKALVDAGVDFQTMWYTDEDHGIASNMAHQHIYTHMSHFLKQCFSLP", "test": "DP-IV inhibition, hydrolysis of Ala-Pro-p-nitroanilide", "type": "biochemical, pig", "conditions": "for Inhibition of / affinity for DP-IV (in words): N terminus blocked", "protocol": "Briefly, a reaction containing 50 μmol sodium Hepes (pH 7.8), 10 μmol Ala-Pro-p-nitroanilide, 6 milliunits of DP-IV, and 2% (vol/vol) dimethylformamide in a total volume of 1.0 ml. The reaction was initiated by the addition of enzyme and reaction rates were measured at 25° C.\nTh rates of DP-IV-catalyzed hydrolysis of Ala-Pro-p-nitroanilide were determined at 3 to 5 different concentration of Ala-boroPro Pro-boroPro, boroPro and N-Boc-Ala-boroPro."}}, "data": [{"smiles": "C[C@H](N)C(=O)N1CCCC1B(O)O", "note": "(mixture of isomers) [Ala-boroPro, H-Ala-boroPro]", "values": [{"measurement": "half-life", "setting": "[1]", "result": "~30", "unit": "min"}, {"measurement": "Suppression of HIV (p24 antigen)", "setting": "[2]; A3.5 cells infected with HIV-1-IIIB", "result": "suppresses HIV below detectable levels"}]}, {"smiles": "O=C([C@@H]1CCCN1)N1CCCC1B(O)O", "note": "(mixture of isomers) [Pro-boroPro, H-Pro-boroPro]", "values": [{"measurement": "Inhibition of DP-IV from human placenta compared with pig kidney enzyme", "setting": "[3]", "result": "equally well"}, {"measurement": "half-life", "setting": "[1]", "result": "~90", "unit": "min"}, {"measurement": "Ki", "setting": "[4]", "result": 0.003, "unit": "µM"}, {"measurement": "Ki for DP-IV (in words)", "setting": "[4]; pig kidney DP-IV", "result": "nanomolar range"}, {"measurement": "Affinity for DP-IV, fold less than that of H-Ala-boroPro", "setting": "[4]; relative to H-Ala-boroPro", "result": "about 10 fold"}]}, {"smiles": "Cc1cn([C@H]2C[C@H](N=[N+]=[N-])[C@@H](CO)O2)c(=O)[nH]c1=O", "note": "[AZT, zidovudine, reference compound]", "values": [{"measurement": "Anti-HIV effect (p24 antigen)", "setting": "[2]; 1 μM, A3.5 cells", "result": "anti-HIV effect"}]}, {"smiles": "OB(O)C1CCCN1", "note": "(stereo not shown) [BoroPro, boroProline]", "values": [{"measurement": "Ki", "setting": "[4]", "result": 110, "unit": "µM"}, {"measurement": "Decrease in affinity on going from Ala-boroPro or Pro-boroPro", "setting": "[4]; relative to Ala-boroPro or Pro-boroPro, Table 1", "result": "10^5–10^6"}]}, {"smiles": "CC(NC(=O)OC(C)(C)C)C(=O)N1CCCC1B(O)O", "note": "(stereo not drawn) [N-Boc-Al-boroPro, N-Boc-Ala-boroPro]", "values": [{"measurement": "Ki", "setting": "[4]", "result": "> 1000", "unit": "µM"}, {"measurement": "Inhibition of / affinity for DP-IV (in words)", "setting": "[4]", "result": "abolished inhibition"}, {"measurement": "Inhibition of / affinity for DP-IV (in words)", "setting": "[4]; listed as Boc-blocked Ala-boroPr", "result": "no affinity"}]}]}
